According to patent publication US7531573B2 (priority 1994, dated 2009):
Like-named read-outs stand apart in the source and are kept apart here.

What was measured:
red cell Gardos channel = red cell Gardos channel (Homo sapiens, UniProt O15554); test: cell-based
Description: CLT and metabolite B (Compound 6) were incubated with a red cell suspension at 20% Hct.

[1] = system: Human melanoma cells (MM-RU); test: [3H]thymidine uptake in MM-RU cells; assay type: cell-based; details: 10 μM
Description: (§1) Human melanoma cells (MM-RU) and colon adenocarcinoma cells (HT29) were cultured in the presence and absence of 10 μM CLT metabolite B (Compound 6) as described in Benzaquen et al., 1995, Nature Medicine 1:534-540 and the level of DNA synthesis determined by measuring [^3H]thymidine uptake.

[2] = system: colon adenocarcinoma cells (HT29); test: [3H]thymidine uptake in HT29 cells; assay type: cell-based, human; details: 10 μM
Description: as §1

[3] = system: NIH 3T3 mouse fibroblast cells; test: Mitogen-induced cell proliferation; assay type: cell-based
Text: Other cell lines, e.g., cancer cells, endothelial cells and fibroblasts, as well as many others, may be used in the cell proliferation assay. Selection of a particular cell line will depend in part on the desired application, and is well within the capabilities of an ordinarily skilled artisan.

Gardos channel = Gardos channel (Homo sapiens, UniProt O15554); assay type: binding; details: red cells
Sequence of Gardos channel (O15554 whole entry): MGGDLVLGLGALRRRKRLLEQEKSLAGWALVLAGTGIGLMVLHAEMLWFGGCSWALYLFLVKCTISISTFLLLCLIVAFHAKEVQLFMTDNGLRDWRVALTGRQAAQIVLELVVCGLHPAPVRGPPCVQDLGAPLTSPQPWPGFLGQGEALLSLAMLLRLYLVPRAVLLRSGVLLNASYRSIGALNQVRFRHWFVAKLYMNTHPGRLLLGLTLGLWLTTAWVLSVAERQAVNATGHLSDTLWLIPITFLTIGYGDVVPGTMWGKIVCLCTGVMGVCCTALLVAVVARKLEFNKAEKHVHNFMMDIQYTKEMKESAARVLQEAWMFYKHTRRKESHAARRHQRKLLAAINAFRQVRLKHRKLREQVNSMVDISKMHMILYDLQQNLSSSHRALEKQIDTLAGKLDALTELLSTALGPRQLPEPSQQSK

clinical = assay type: in vivo; details: human, plasma, read-out: Levels Plasma; for concentration at 6 day of CLT dosing: CLT day 6; for concentration at 10 day (wash-out): Wash-out day 10; for concentration at 13 day (wash-out): Wash-out day 13; for concentration at 20 day (wash-out): Wash-out day 20
[4] = target: Gardos channel of erythrocytes (Homo sapiens, UniProt O15554); test: cell-based
Sequence of Gardos channel of erythrocytes (O15554 whole entry): as above

[5] = system: hepatic microsomal cytochrome P450; details: rats; Matsuura et al., 1991; cited from earlier work
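Throughout, for Levels Plasma: oral tablet given every 12 h for six days, about 14 mg/kg per day for this subject, with levels then followed in plasma.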

Sequence of red cell Gardos channel (O15554 whole entry): as above

With `OC(c1ccccc1)(c1ccccc1)c1ccccc1Cl` [Compound 6, 2-chlorophenyl-diphenylmethanol] the IC50 (red cell Gardos channel) was 720 ± 190 nM, the “IC50 for inhibition of K+ transport relative to IC50 for displacement of 125I-ChTX” value (red cell Gardos channel) was “two to three fold lower” and the “concentration at which inhibition of K+ transport reached maximal levels” value (red cell Gardos channel) was 10 µM. For the same compound, the “% control” value (red cell Gardos channel; 1 nM) was 125.3%, the flux (red cell Gardos channel; 1 nM) was 1.444 and the inhibition at 0.001 µM (red cell Gardos channel; 1 nM) was -25.3%. For the same compound, the “% control” value (red cell Gardos channel; 10 nM) was 96.8%, the flux (red cell Gardos channel; 10 nM) was 1.115 and the inhibition at 0.01 µM (red cell Gardos channel; 10 nM) was 3.2%. For the same compound, the “% control” value (red cell Gardos channel; 100 nM) was 82.6%, the flux (red cell Gardos channel; 100 nM) was 0.952 and the inhibition at 0.1 µM (red cell Gardos channel; 100 nM) was 17.4%. For the same compound, the “% control” value (red cell Gardos channel; 500 nM) was 62.2%, the flux (red cell Gardos channel; 500 nM) was 0.717 and the inhibition at 0.5 µM (red cell Gardos channel; 500 nM) was 37.8%. The “% control” value (red cell Gardos channel; 1 μM) was 37.9%, the flux (red cell Gardos channel; 1 μM) was 0.437 and the inhibition at 1 µM (red cell Gardos channel; 1 μM) was greater than 50%. For the same compound, the “% control” value (red cell Gardos channel; 5 μM) was 21.7%, the flux (red cell Gardos channel; 5 μM) was 0.25 and the inhibition at 5 µM (red cell Gardos channel; 5 μM) was 78.3%. The “% control” value (red cell Gardos channel; 10 μM) was 9.8%, the flux (red cell Gardos channel; 10 μM) was 0.113 and the inhibition at 10 µM (red cell Gardos channel; 10 μM) was 90.2%. For the same compound, the “inhibition of [3H]thymidine uptake versus controls” value [1] was “about 60%”, the “inhibition of [3H]thymidine uptake versus controls” value [2] was “about 50%” and the inhibition at 10 µM ([3]; NIH3T3, read-out: Mitogen-induced cell proliferation % Inhibition) was 31%. The IC50 ([3]; NIH3T3, read-out: Mitogen-induced cell proliferation IC50) was 2100 nM, the “125I-ChTX Binding” value (Gardos channel; 1 nM) was 1.403 and the “125I-ChTX Binding” value (Gardos channel; 10 nM) was 1.399. For the same compound, the “125I-ChTX Binding” value (Gardos channel; 100 nM) was 1.239, the “Displacement (%)” value (Gardos channel; 100 nM) was 6.0% and the “125I-ChTX Binding” value (Gardos channel; 500 nM) was 1.134. The “Displacement (%)” value (Gardos channel; 500 nM) was 21.6%, the “125I-ChTX Binding” value (Gardos channel; 1 μM) was 1.327 and the “125I-ChTX Binding” value (Gardos channel; 5 μM) was 1.016. The “Displacement (%)” value (Gardos channel; 5 μM) was 39.2%, the “125I-ChTX Binding” value (Gardos channel; 10 μM) was 0.790 and the “Displacement (%)” value (Gardos channel; 10 μM) was 72.9%. For the same compound, the “Displacement of 125I-ChTX binding (in words)” value (Gardos channel) was “specifically displaces”, the concentration at 6 day of CLT dosing (clinical; oral, 500 mg, Subject A) was 1100 nM and the concentration at 6 day (wash-out) (clinical; oral, 500 mg, Subject A, Wash-out day 6) was less than 100 nM. For the same compound, the concentration at 10 day (wash-out) (clinical; oral, 500 mg, Subject A) was less than 100 nM, the concentration at 13 day (wash-out) (clinical; oral, 500 mg, Subject A) was 0 nM and the concentration at 20 day (wash-out) (clinical; oral, 500 mg, Subject A) was 0 nM. The concentration at 3 day of CLT dosing (clinical; oral, 500 mg, Subject B, CLT day 3) was 800 nM, the concentration at 6 day of CLT dosing (clinical; oral, 500 mg, Subject B) was 1350 nM and the concentration at 8 day (wash-out) (clinical; oral, 500 mg, Subject B, Wash-out day 8) was less than 100 nM. For the same compound, the concentration at 10 day (wash-out) (clinical; oral, 500 mg, Subject B) was less than 100 nM, the concentration at 13 day (wash-out) (clinical; oral, 500 mg, Subject B) was 0 nM and the concentration at 20 day (wash-out) (clinical; oral, 500 mg, Subject B) was 0 nM. The concentration at 3 day of CLT dosing (clinical; Subject A, CLT day 3, oral CLT 500 mg every twelve hours) was 1100 nM, the melting point was 92 to 93.5 °C and the IC50 [4] was 961 nM. The inhibition at 10 µM ([4]; read-out: Gardos Channel % Inhibition) was 98% and the “induction of hepatic microsomal cytochrome P450” value [5] was “does not induce”.
